The conditions of data set [1]: described in literature; cited from earlier work.
The target in data set [2] is TfR (Homo sapiens, UniProt P02786). The experiment in a line: Sandwich ELISA, binding of fluorescent PLGA-GA/PLGA NS to TfR. To be noted: 200 ng of TfR. As to the method: GA has been previously shown to have affinity for TfR, independent of transferrin binding. To evaluate the translation of the avidity of GA for TfR in PLGA-GA NS, a sandwich ELISA method was employed. The initial study involved the determination of the effect of surface GA density of NS in their binding affinity to TfR. […] The total […] of the NS suspension available in the wells without TfR was also measured in order to ensure that the variation in the FI with TfR was caused by the binding of the NS to the receptor.
Chain of TfR (P02786 whole entry, species assumed): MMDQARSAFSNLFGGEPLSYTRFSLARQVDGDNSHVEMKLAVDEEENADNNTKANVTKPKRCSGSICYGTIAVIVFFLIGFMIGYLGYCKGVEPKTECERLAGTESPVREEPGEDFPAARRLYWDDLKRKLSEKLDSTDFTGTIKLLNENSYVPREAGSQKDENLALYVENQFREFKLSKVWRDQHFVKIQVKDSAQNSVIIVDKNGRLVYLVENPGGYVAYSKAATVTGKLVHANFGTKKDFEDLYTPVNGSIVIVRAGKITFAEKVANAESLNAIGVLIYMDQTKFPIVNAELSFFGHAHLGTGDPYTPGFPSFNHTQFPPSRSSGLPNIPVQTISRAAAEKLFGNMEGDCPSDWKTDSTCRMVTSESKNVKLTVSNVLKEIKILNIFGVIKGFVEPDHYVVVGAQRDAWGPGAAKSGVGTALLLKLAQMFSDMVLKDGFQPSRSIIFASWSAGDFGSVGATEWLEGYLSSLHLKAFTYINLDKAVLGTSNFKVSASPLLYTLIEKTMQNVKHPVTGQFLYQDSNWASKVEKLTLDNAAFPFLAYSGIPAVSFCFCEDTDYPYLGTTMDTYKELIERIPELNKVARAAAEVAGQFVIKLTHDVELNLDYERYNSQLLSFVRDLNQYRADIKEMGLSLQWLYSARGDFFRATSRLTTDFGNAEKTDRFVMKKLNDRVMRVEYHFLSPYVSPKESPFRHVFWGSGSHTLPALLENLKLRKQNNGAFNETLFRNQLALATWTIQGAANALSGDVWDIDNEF
(In general: In an ELISA, binding on a coated surface is turned into a signal by an enzyme label.)

Data set [3] concerns Caco-2 cells. As to the kind of experiment: Concentration dependent toxicity in Caco-2 cells. Format: cell-based. To be noted: human. Here is the method: Cell death observed in the latter case could be attributed to the cumulative effect of high concentration of polymer and available GA. However, a moderate treatment of 250 μg NS appears to be safe for the cells. The amount of GA present in all the NS in […] was much lower than the established safe dose of 60 mg/kg described in literature.

Results on 1 molecule are retold here after patent US10786465B2, “Polymer/copolymer nanoparticles conjugated to gambogic acid” (The Texas A&M University System, priority 2015, dated 2020).

In the case of `CC(C)=CCC[C@]1(C)C=Cc2c(O)c3c(c(CC=C(C)C)c2O1)O[C@]12C(=C[C@@H]4C[C@H]1C(C)(C)O[C@@]2(C/C=C(/C)C(=O)O)C4=O)C3=O` [GA, gambogic acid], the established safe dose in data set [1] is recorded as 60 mg/kg. For the same molecule, in data set [2], the “competition with 2° antibody for TfR (colorimetric TfR levels)” value is listed as “does not compete with 2° antibody for TfR”. Also, the cell death came to 25% in data set [3] (20 μM) and 46% in data set [3] (30 μM).
